Assay [1] has as its system Streptococcus pneumoniae 1/1. Briefly: MIC against Streptococcus pneumoniae 1/1. The assay is classed as cell-based. To be noted: Streptococcus pneumoniae 1/1, trimethoprim- and penicillin-resistant, serotype 6, clinical isolate; for MIC: read-out: MIC Sp1/1.
Assay [2] has as its target T1, purified DHFR of strain Sp1/1 of Streptococcus pneumoniae (Streptococcus pneumoniae serotype 4, UniProt Q54801).
T1 sequence (Q54801 1-168 I100L): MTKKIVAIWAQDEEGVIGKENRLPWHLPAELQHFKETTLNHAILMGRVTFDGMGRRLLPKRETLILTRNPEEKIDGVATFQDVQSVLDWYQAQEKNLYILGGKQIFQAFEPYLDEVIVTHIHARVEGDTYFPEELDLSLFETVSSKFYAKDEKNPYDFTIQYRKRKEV
It counts as biochemical. To be noted: IC50 against purified DHFR of strain Sp1/1.

In assay [3] the target is purified DHFR of strain 157/4696 of Staphylococcus aureus (Staphylococcus aureus, UniProt P13955). Briefly: biochemical.
Assay [4] has as its system Staphylococcus aureus 101. Briefly: MIC against Staphylococcus aureus 101. The assay is classed as cell-based. To be noted: Staphylococcus aureus 101, MRSA- and trimethoprim-resistant, clinical isolate; for MIC: read-out: MIC Sa101.
Where [5] appears, read: Table 2, IC50 against purified DHFR of strain 157/4696 (highly trimethoprim-resistant; clinical isolate), read-out: DHFR Sa1.

Here are results for 21 molecules from patent publication US6821980B1, “Substituted 5-benzyl-2,4-diaminopyrimidines” (Basilea Pharmaceutica AG, priority 1999, dated 2004).

Values after ≈ are worked out from the molar mass of the structure shown. Like-named read-outs stand apart in the source and are kept apart here.

Chain of purified DHFR of strain 157/4696 of Staphylococcus aureus (P13955 whole entry): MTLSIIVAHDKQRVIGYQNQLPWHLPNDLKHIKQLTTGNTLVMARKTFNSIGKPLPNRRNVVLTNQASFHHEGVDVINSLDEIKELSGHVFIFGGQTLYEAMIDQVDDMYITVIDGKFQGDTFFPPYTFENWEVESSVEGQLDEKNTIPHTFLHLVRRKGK

With `CCOc1cc(Cc2cnc(N)nc2N)cc(OS(=O)(=O)N(C)CC)c1-c1ccc(N)c(C)c1` [Example 27-b, N-Ethyl-N-methyl-sulphamic acid 4′-amino-4-(2,4-diamino-vyrimidin-5-ylmethyl)-6-ethoxy-3′-methyl-biphenyl-2-yl ester], the MIC in assay [1] (Table 2) is 1 µg/mL (≈ 2.06 µM); in assay [4] (Table 2) it was 2 µg/mL (≈ 4.11 µM). In addition, the IC50 in assay [2] (Table 2) was 14 nM; in assay [3], 190 nM.
With `CCOc1cc(Cc2cnc(N)nc2N)cc(OS(=O)(=O)N(C)C2CC2)c1-c1ccc(N)c(C)c1` [Example 27-c, N-Cyclopropyl-N-methyl-sulphamic acid 4′-amino-4-(2,4-diamino-pyrimidin-5-ylmethyl)-6-ethoxy-3′-methyl-biphenyl-2-yl ester], the MIC in assay [1] (Table 2) and in assay [4] (Table 2) was 1 µg/mL (≈ 2.01 µM) each time. Moreover, the IC50 in assay [2] (Table 2) turned out to be 2.6 nM; in assay [3], 180 nM.
`CCOc1cc(Cc2cnc(N)nc2N)cc(OS(=O)(=O)N(C)C)c1-c1ccc(N)c(F)c1` [Example 28-a, Dimethylsullhamic acid 4′-amino-4-(2,4-diamino-pyrimidin-5-ylmethyl)-6-ethoxy-3′-fluoro-biphenyl-2-yl ester]: the MIC in assay [1] (Table 2) was determined as 1 µg/mL (≈ 2.1 µM); in assay [4] (Table 2) it was 2 µg/mL (≈ 4.2 µM). Also, the IC50 in assay [2] (Table 2) is 5.8 nM; in assay [3] it was 320 nM.
As to `CCOc1cc(Cc2cnc(N)nc2N)cc(OS(=O)(=O)N(C)CC)c1-c1ccc(N)c(F)c1` [Example 28-b, N-Ethyl-N-methyl-sulphamic acid 4′-amino-4-(2,4-diamino-pyrimidin-5-ylmethyl)-6-ethoxy-3′-fluoro-biphenyl-2-yl ester], the MIC in assay [1] (Table 2) amounted to 1 µg/mL (≈ 2.04 µM); in assay [4] (Table 2) it was 2 µg/mL (≈ 4.08 µM). Also, the IC50 turned out to be 6.8 nM in assay [2] (Table 2) and 320 nM in assay [3].
On the same counts, the results for `CCOc1cc(Cc2cnc(N)nc2N)cc(OS(=O)(=O)N(C)C2CC2)c1-c1ccc(N)c(F)c1` [Example 28-c, N-Cyclopropyl-N-methyl-sulphamic acid 4′-amino-4-(2,4-diamino-pvrimidin-5-ylmethyl)-6-ethoxy-3′-fluoro-biphenyl-2-yl ester] are 1 µg/mL (≈ 1.99 µM), 2 µg/mL (≈ 3.98 µM), 18 nM and 240 nM.
On the same counts, the results for `CCOc1cc(Cc2cnc(N)nc2N)cc(OS(=O)(=O)N(C)C2CC2)c1-c1cc(N)cc(F)c1` [Example 29-a, N-Cyclopropyl-N-methyl-sulphamic acid 3′-amino-4-(2,4-diamino-pyrimidin-5-ylmethyl)-6-ethoxy-5′-fluoro-biphenyl-2-yl ester] are 2 µg/mL (≈ 3.98 µM), 1 µg/mL (≈ 1.99 µM), 6.3 nM and 220 nM.
Regarding `CCOc1cc(Cc2cnc(N)nc2N)cc(OS(=O)(=O)N(C)C)c1-c1cc(N)cc(F)c1` [Example 29-b, Dimethylsulphamic acid 3′-amino-4-(2,4-diamino-pyrimidin-5-ylmethyl)-6-ethoxy-5′-fluoro-biphenyl-2-yl ester], the MIC in assay [1] (Table 2) and in assay [4] (Table 2) was 2 µg/mL (≈ 4.2 µM) throughout. Moreover, the results for the IC50 in assay [2] (Table 2) and in assay [3] were 14 nM and 95 nM, respectively.
With `CCOc1cc(Cc2cnc(N)nc2N)cc(OS(=O)(=O)N(C)CC)c1-c1cc(N)cc(F)c1` [Example 29-c, N-Ethyl-N-methyl-sulphamic acid 3′-amino-4-(2,4-diamino-pyrimidin-5-ylmethyl)-6-ethoxy-5′-fluoro-biphenyl-2-yl ester], the MIC in assay [1] (Table 2) and in assay [4] (Table 2) was 2 µg/mL (≈ 4.08 µM) each time. Besides, the figures for the IC50 in assay [2] (Table 2) and in assay [3] were 5.2 nM and 170 nM, respectively.
On to `CCOc1cc(Cc2cnc(N)nc2N)cc(OS(=O)(=O)N(C)C)c1-c1ccc(CN2CCOCC2)c(N)c1` [Example 30-a, Dimethylsulphamic acid 3′-amino-4-(2,4-diamino-pyrimidin-5-ylmethyl)-6-ethoxy-4′-morpholin-4-ylmethyl-biphenyl-2-yl ester], for which the MIC in assay [1] (Table 2) and in assay [4] (Table 2) was 2 µg/mL (≈ 3.59 µM) throughout. Also, the IC50 in assay [2] (Table 2) was found to be 4.5 nM; in assay [3], 88 nM.
Take `CCOc1cc(Cc2cnc(N)nc2N)cc(OS(=O)(=O)N(C)C2CC2)c1-c1ccc(CN2CCOCC2)c(N)c1` [Example 30-b, N-Cyclopropyl-N-methyl-sulphamic acid 3′-amino-4-(2,4-diamino-pyrimidin-5-ylmethyl)-6-ethoxy-4′-morpholin-4-ylmethyl-biphenyl-2-yl ester]: the MIC in assay [1] (Table 2) and in assay [4] (Table 2) was 2 µg/mL (≈ 3.43 µM) each time. The IC50 turned out to be 14 nM in assay [2] (Table 2) and 37 nM in assay [3].
Take `CCOc1cc(Cc2cnc(N)nc2N)cc(OS(=O)(=O)N(C)CC)c1-c1ccc(CN2CCOCC2)c(N)c1` [Example 30-c, N-Ethyl-N-methyl-sulphamic acid 3′-amino-4-(2,4-diamino-pyrimidin-5-ylmethyl)-6-ethoxy-4′-morpholin-4-ylmethyl-biphenyl-2-yl ester]: the MIC in assay [1] (Table 2) and in assay [4] (Table 2) was 2 µg/mL (≈ 3.5 µM) throughout. The IC50 was 16 nM in assay [2] (Table 2) and 140 nM in assay [3].
As to `CCOc1cc(Cc2cnc(N)nc2N)cc(OS(=O)(=O)N(C)CC)c1-c1ccc(C)c(N)c1` [Example 31-b, N-Ethyl-N-methyl-sulphamic acid 3′-amino-4-(2,4-diamino-pyrimidin-5-ylmethyl)-6-ethoxy-4′-methyl-biphenyl-2-yl ester], the MIC in assay [1] (Table 2) came to 1 µg/mL (≈ 2.06 µM); in assay [4] (Table 2) it was 2 µg/mL (≈ 4.11 µM). Further, the IC50 in assay [2] (Table 2) turned out to be 4.4 nM; in assay [3], 130 nM.
As to `CCOc1cc(Cc2cnc(N)nc2N)cc(OS(=O)(=O)N(C)C)c1-c1ccc(C)c(N)c1` [Example 31a, Dimethylsulphamic acid 3′-amino-4-(2,4-diamino-pyrimidin-5-ylmethyl)-6-ethoxy-4′-methyl-biphenyl-2-yl ester], the MIC in assay [1] (Table 1) and in assay [4] (Table 1) was 1 µg/mL (≈ 2.12 µM) each time. For the same molecule, the IC50 in assay [2] (Table 1) worked out at 1.9 nM; in assay [3] it was 110 nM.
`CCCS(=O)(=O)Oc1cc(Cc2cnc(N)nc2N)cc(OCC)c1-c1ccc(CN2CCOCC2)c(N)c1` [Example 32-a, Pronane-1-sulophonic acid 3′-amino-4-(2,4-diamino-pyrimidin-5-ylmethyl)-6-ethoxy-4′-morpholinemethyl-4-ylmethyl-biphenyl-2-yl ester]: the “MIC Sp1/1” value in assay [1] (Table 2) was 1 µg/mL (≈ 1.8 µM). For the same molecule, the IC50 was found to be 4.6 nM in assay [2] (Table 2) and 120 nM in assay [3] (setting [5]). Moreover, the “MIC Sa101” value in assay [4] (Table 2) is 4 µg/mL (≈ 7.19 µM).
On the same counts, the results for `CCCS(=O)(=O)Oc1cc(Cc2cnc(N)nc2N)cc(OCC)c1-c1ccc(N)c(C)c1` [Example 32-b] are 1 µg/mL (≈ 2.12 µM), 4.2 nM, 160 nM and 4 µg/mL (≈ 8.48 µM).
On the same counts, the results for `CCCS(=O)(=O)Oc1cc(Cc2cnc(N)nc2N)cc(OCC)c1-c1ccc(F)c(N)c1` [Example 32-c] are 1 µg/mL (≈ 2.1 µM), 6.1 nM, 130 nM and 4 µg/mL (≈ 8.41 µM).
On the same counts, the results for `CCCS(=O)(=O)Oc1cc(Cc2cnc(N)nc2N)cc(OCC)c1-c1ccc(OC)c(N)c1` [Example 32-d, Propane-1-sulphonic acid 3′-amino-4-(2,4-diamino-pyrimidin-5-ylmethyl)-6-ethoxy-4′-methoxy-4-ylmethyl-biphenyl-2-yl ester] are 1 µg/mL (≈ 2.05 µM), 5.9 nM, 140 nM and 2 µg/mL (≈ 4.1 µM).
In the case of `CCCS(=O)(=O)Oc1cc(Cc2cnc(N)nc2N)cc(OCC)c1-c1ccc(N)c(F)c1` [Example 32-e, Propane-1-sulphonic acid 4′-amino-4-(2,4-diamino-pyrimidin-5-ylmethyl)-6-ethoxy-3′-fluoro-4-ylmethyl-biphenyl-2-yl ester], in assay [1] (Table 2), the “MIC Sp1/1” value stood at 1 µg/mL (≈ 2.1 µM). Moreover, the IC50 in assay [2] (Table 2) was 6.8 nM; in assay [3] (setting [5]) it was 280 nM. In addition, in assay [4] (Table 2), the “MIC Sa101” value was 4 µg/mL (≈ 8.41 µM).
As to `CCCS(=O)(=O)Oc1cc(Cc2cnc(N)nc2N)cc(OCC)c1-c1cc(N)cc(F)c1` [Example 32-f, Propane-1-sulphonic acid 3′-amino-4-(2,4-diamino-pyrimidin-5-ylmethyl)-6-ethoxy-5′-fluoro-4-ylmethyl-biphenyl-2-yl ester], the “MIC Sp1/1” value in assay [1] (Table 2) came out at 1 µg/mL (≈ 2.1 µM). Besides, the values for the IC50 in assay [2] (Table 2) and in assay [3] (setting [5]) were 30 nM and 420 nM, respectively. Further, the “MIC Sa101” value in assay [4] (Table 2) is 4 µg/mL (≈ 8.41 µM).
For the molecule `CCCS(=O)(=O)Oc1cc(Cc2cnc(N)nc2N)cc(OCC)c1-c1ccc(CN(C)C)c(N)c1` [Example 32-g, Propane-1-sulphonic acid 3′-amino-4-(2,4-diamino-pyrimidin-5-ylmethyl)-6-ethoxy-4′-dimethylaminomethyl-4-ylmethyl-biphenyl-2-yl ester], in assay [1] (Table 2), the “MIC Sp1/1” value is 4 µg/mL (≈ 7.77 µM). The values for the IC50 in assay [2] (Table 2) and in assay [3] (setting [5]) were 75 nM and 68 nM, respectively. Besides, the “MIC Sa101” value in assay [4] (Table 2) came out at 8 µg/mL (≈ 15.5 µM).
On to `CCOc1cc(Cc2cnc(N)nc2N)cc(OS(=O)(=O)C(C)C)c1-c1ccc(OC)c(N)c1` [Example 33-a, Propane-2-sulphonic acid 3′-amino-4-(2,4-diamino-pyrimidin-5-ylmethyl)-6-ethoxy-4′-methoxy-4-ylmethyl-biphenyl-2-yl ester], for which the MIC in assay [1] (Table 2) and in assay [4] (Table 2) was 1 µg/mL (≈ 2.05 µM) throughout. Moreover, the IC50 in assay [2] (Table 2) came to 12 nM; in assay [3] it was 65 nM.
